Here are results for three compounds from ChEMBL document CHEMBL3217748, “Chemical synthesis and biological study of 4-carboxymethyl-epiafzelechin acid, an osteoprotective compound from the rhizomes of Drynaria fortunei” (2012).

Calls of active or inactive are those of the source. The calls are words filed in the database; no cut-off is given here.

Test [1] is described as follows: (§1) Induction of rat UMR106 cell differentiation at 10^-8 M after 24 hrs by ALP assay relative to control. It is filed as functional.
The subject of test [2] is UMR106. Put plainly: Induction of rat UMR106 cell proliferation after 24 hrs by MTS assay. It is filed as functional, cell-based. On the technique in general: Tetrazolium assays rely on reduction of a dye to a coloured formazan, in cell work by metabolically active cells.
The nature of test [3]: Induction of rat UMR106 cell differentiation at 10^-10 M after 24 hrs by ALP assay relative to control. The class given is functional.
Test [4] can be described thus: Induction of rat UMR106 cell proliferation assessed as increase in cell number at 10^-10 to 10^-8 M after 24 hrs by MTS assay relative to control. The class given is functional.
Test [5] concerns UMR106. In words: Induction of rat UMR106 cell proliferation after 24 hrs by MTS assay in presence of estrogen receptor antagonist ICI 182,780. It is filed as functional, cell-based.
Test [6] is described as follows: Induction of rat UMR106 cell differentiation at 10^-6 M after 24 hrs by ALP assay relative to control. It is filed as functional.
Test [7] relates to UMR106. Put plainly: Induction of rat UMR106 cell differentiation after 24 hrs by ALP assay in presence of estrogen receptor antagonist ICI 182,780. The class given is functional, cell-based.
Test [8] addresses Estrogen receptor beta (Homo sapiens) (UniProt Q92731). Put plainly: Transactivation of human ER-beta transfected in rat UMR106 cells at 10^-14 to 10^-6 M after 24 hrs by dual luciferase reporter gene assay. It is filed as cell-based.
Test [9] concerns UMR106. Described as §1. It is filed as functional.
For test [10], the system named is UMR106. In words: Induction of rat UMR106 cell proliferation at 10^-8 M after 24 hrs by MTS assay in presence of estrogen receptor antagonist ICI 182,780. It is filed as functional, cell-based.
For test [11], the system named is UMR106. In words: Induction of rat UMR106 cell proliferation assessed as increase in cell number at 10^-8 M after 24 hrs by MTS assay. The class given is functional, cell-based.

Sequence of Estrogen receptor beta (Homo sapiens) (Q92731 whole entry): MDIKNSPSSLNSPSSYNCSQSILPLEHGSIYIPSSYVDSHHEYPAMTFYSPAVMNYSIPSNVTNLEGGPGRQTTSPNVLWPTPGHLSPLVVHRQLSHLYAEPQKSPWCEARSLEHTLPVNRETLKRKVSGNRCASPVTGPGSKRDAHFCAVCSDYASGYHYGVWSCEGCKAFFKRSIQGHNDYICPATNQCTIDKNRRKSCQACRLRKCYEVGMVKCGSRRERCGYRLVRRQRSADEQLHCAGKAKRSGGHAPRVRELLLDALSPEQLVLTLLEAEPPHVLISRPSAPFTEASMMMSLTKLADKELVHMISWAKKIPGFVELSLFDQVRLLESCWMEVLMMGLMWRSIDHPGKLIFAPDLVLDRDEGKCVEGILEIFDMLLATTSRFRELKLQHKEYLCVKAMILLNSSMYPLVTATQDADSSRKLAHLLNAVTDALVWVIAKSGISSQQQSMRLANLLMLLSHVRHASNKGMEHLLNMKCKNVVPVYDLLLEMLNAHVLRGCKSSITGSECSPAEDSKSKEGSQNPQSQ

As to `O=C(O)C[C@H]1c2c(O)cc(O)cc2O[C@H](c2ccc(O)cc2)[C@@H]1O`, the Activity is 14% in test [1], “Dose-dependent effect” in the test on UMR106 [2], 18% in test [3] and 18% in [6]. For the same compound, in [4], the “fold change (FC)” value is 1.4. For the same compound, the outcome (in the test on UMR106 [5]; in test [8]) was inactive. Moreover, the outcome in the test on UMR106 [7] was Active.
With `C[C@]12CC[C@@H]3c4ccc(O)cc4CC[C@H]3[C@@H]1CC[C@@H]2O`, the outcome in the test on UMR106 [9], with UMR106 [11] and in the test with UMR106 [7] was Active. For the same compound, the Activity result in the test with UMR106 [2] is “Dose-dependent effect”. Also, the result in the test on UMR106 [10] was inactive.
Turning to `O=C1C[C@H]2c3c(O)cc(O)cc3O[C@H](c3ccc(O)cc3)[C@H]2O1`, the values for the Activity entry (in the test on UMR106 [2]; in [3]) were “Dose-dependent effect” and 10%, respectively. Moreover, the result (with UMR106 [5]; in [8]) was inactive. Further, the outcome in the test with UMR106 [7] was Active.
